The test has as its system HCV replicon RNA replication in human Huh7 hepatoma cells. The test can be described thus: HCV replicon assay (activity levels from either or both of HCV replicon assay 1, Huh7/Clone A RT-qPCR, and assay 2, Huh7 ET luc-ubi-neo/ET). Type of test: cell-based, Hepatitis C virus (HCV). To be noted: Hepatitis C virus, Huh-7, either or both HCV replicon assays: Huh7/Clone A, 48 hours, 72 hours, Luc activity or RT-PCR, read-out: inhibit HCV replication at IC50 levels or estimated IC50 levels. From the text:
The HCV replicon assay is a cell-culture system that mimics in vivo HCV replication and provides a system to study HCV replication in vitro. It was created by transfecting cloned viral RNA derived from a consensus HCV genomic sequence into human Huh7 hepatoma cells that are semi-permissive for viral RNA production (Lohmann V., Korner F., Koch J.-O., Herian U., Theilmann L. and Bartenschlager R. (1999). Replication of subgenomic Hepatitis C virus RNAs in a hepatoma cell line. Science 285, 110-113 and Blight K. J., Kolykhalov A. A. and Rice C. M. (2000). Efficient initiation of HCV RNA Replication in cell culture. Science 290, […]). These transfected cell lines contain a subgenomic HCV RNA genome that includes (1) the HCV 5′NTR fused to 12 amino acids of the capsid coding region, (2) the neomycin phosphotransferase gene (Neo) as a selectable marker, (3) the internal ribosome entry site (IRES) from encephalomyocarditis virus (EMCV) that directs translation of HCV non-structural proteins (variously NS2 or NS3 to NS5B), and (4) the 3′ NTR. Replicon-containing cells autonomously and persistently replicate HCV RNA that can be measured quantitatively by real-time qPCR. Therefore, the replicon system facilitates quantitative assessment of anti-viral activity by monitoring changes in HCV RNA replication in a cell-based assay.
HCV replicon-containing cells (Huh7/Clone A) were routinely maintained in Clone A growth medium (DMEM medium [Invitrogen], supplemented with 10% Fetal Bovine Serum, 1% Non Essential Amino Acids and 1 g/L G418). Test compounds were dissolved in dimethyl sulfoxide (DMSO) to make 200× stock solutions for all doses prior to treatment.
For the HCV replicon assay, Huh7/Clone A cells were trypsinized from culture flasks, seeded in 1 ml of Clone A growth medium without G418 at 4×10^4 cells per well in 24-well plates and incubated at 37° C. in a humidified CO2 (5%) incubator overnight. Following overnight incubation, compound solutions were added into wells in the same volume (5 μl of 200× compound stock per well) to give a final DMSO concentration of 0.5%. Three wells on each plate supplemented with 5 μl of DMSO served as untreated controls. For IC50 determinations, compounds were tested at 7 serial dilutions in triplicates from the starting stock solutions. The plates were incubated at 37° C. for 48 hours. After incubation, cells were harvested, transferred to 96-well plates, and subjected to total RNA extraction using the RNA Isolation Kit (RNeasy 96, Qiagen) according to the protocol described by the manufacture's RNeasy 96 Handbook (Qiagen).
Total RNA eluted in 130 μl of RNase-free dH2O was quantitated by the RiboGreen Assay according to the supplier's protocol (Molecular Probe). Briefly, 5 μl of RNA samples were aliquoted in duplicate to a 96-well black microplate and a 96-well TaqMan Optical plate. RNA samples in the black microplate were mixed with 95 μl of diluted RiboGreen:reagent (1:250 dilution in TE buffer) and sample fluorescence was measured using a fluorescence microplate reader at standard fluorescein wavelengths (excitation ˜480 nm, emission ˜520 nm). Ribosomal RNA (Molecular Probe) was used as standard.
TaqMan quantitative PCR (RT-qPCR) was used to quantitate the amount of HCV replicon RNA in each sample. The RT-qPCR reactions were performed in 25 μl on an ABI PRISM 7900 HT Sequence Detection System (Applied Biosystems). The reaction mixture contained 5 μl of total RNA (10-100 ng), 1× TaqMan Buffer A (Applied Biosystems), 5.5 mM MgCl2, 1.2 mM dNTP mix, 0.625 U of AmpliTaq Gold (Applied Biosystems), 5 U of MMLV reverse transcriptase (Promega), 5 U of rRNasin (Promega), 300 nM each of the forward and reverse primers, and 100 nM TaqMan MGB probe. Primers and probe were designed to hybridize to a portion of the neomycin resistance gene (neo) in the replicon and the sequences are as follows: forward primer 5′-GGCTACCTGCCCATTCGA-3′; reverse primer 5′-CCGGCTTCCATCCGAGTAC-3′; MGB probe 5′-CCACCAAGCGAAACA-3′. […]
For the molecule `CN1CCN(c2cc3c(cc2F)c(=O)c(-c2noc(Cc4ccc(F)cc4)n2)cn3Cc2ccccc2F)CC1` [Compound 47, 6-fluoro-3-[5-(4-fluoro-benzyl)-[1,2,4]oxadiazol-3-yl]-1-(2-fluoro-benzyl)-7-(4-methyl-piperazin-1-yl)-1H-quinolin-4-one], the IC50 (as a rule, the midpoint of a concentration-inhibition curve) is less than 10 µM. Turning to `CN1CCN(c2cc3c(cc2F)c(=O)c(-c2noc(Cc4ccccc4)n2)cn3Cc2c(F)cccc2F)CC1` [Compound 48, 3-(5-benzyl-[1,2,4]oxadiazol-3-yl)-1-(2,6-difluoro-benzyl)-6-fluoro-7-(4-methyl-piperazin-1-yl)-1H-quinolin-4-one], the IC50 was less than 10 µM. The same measure for `CN1CCN(c2cc3c(cc2F)c(=O)c(-c2noc(Cc4ccc(F)cc4)n2)cn3Cc2c(F)cccc2F)CC1` [Compound 49, 1-(2,6-difluoro-benzyl)-6-fluoro-3-[5-(4-fluoro-benzyl)-[1,2,4]oxadiazol-3-yl]-7-(4-methyl-piperazin-1-yl)-1H-quinolin-4-one]: less than 10 µM; for `O=c1c(-c2noc(Cc3ccc(F)cc3)n2)cn(Cc2ccc(Cl)cc2)c2cc(N3CCN(c4ccccn4)CC3)c(F)cc12` [Compound 50, 1-(4-chlorobenzyl)-6-fluoro-3-(5-(4-fluorobenzyl)-1,2,4-oxadiazol-3-yl)-7-(4-(pyridin-2-yl)piperazin-1-yl)quinolin-4(1H)-one]: greater than 10 µM.

As to `CN(C)c1cc2c(cc1F)c(=O)c(-c1noc(Cc3ccccc3)n1)cn2Cc1ccc(C(F)(F)F)cc1F` [Compound 51, 3-(5-benzyl-[1,2,4]oxadiazol-3-yl)-7-dimethylamino-6-fluoro-1-(2-fluoro-4-trifluoromethyl-benzyl)-1H-quinolin-4-one], the IC50 is greater than 10 µM. In the case of `CN1CCN(c2cc3c(cc2F)c(=O)c(-c2noc(CN4CCCCC4)n2)cn3Cc2ccc(Cl)cc2)CC1` [Compound 52, 1-(4-chloro-benzyl)-6-fluoro-7-(4-methyl-piperazin-1-yl)-3-(5-piperidin-1-ylmethyl-[1,2,4]oxadiazol-3-yl)-1H-quinolin-4-one], the IC50 was greater than 10 µM. `CN1CCN(c2cc3c(cc2F)c(=O)c(-c2noc(C(CC#N)c4ccccc4)n2)cn3Cc2ccc(Cl)cc2)CC1` (centres unmarked) [Compound 53, 3-{3-[1-(4-chloro-benzyl)-6-fluoro-7-(4-methyl-piperazin-1-yl)-4-oxo-1,4-dihydro-quinolin-3-yl]-[1,2,4]oxadiazol-5-yl}-3-phenyl-propionitrile]: the IC50 was less than 10 µM. The figure for `CN1CCN(c2cc3c(cc2F)c(=O)c(-c2noc(CN4CCCC4)n2)cn3Cc2ccc(Cl)cc2)CC1` [Compound 54, 1-(4-chloro-benzyl)-6-fluoro-7-(4-methyl-piperazin-1-yl)-3-(5-pyrrolidin-1-ylmethyl-[1,2,4]oxadiazol-3-yl)-1H-quinolin-4-one] is greater than 10 µM. Take `CNc1cc2c(cc1F)c(=O)c(-c1noc(Cc3ccccc3)n1)cn2Cc1ccc(C(F)(F)F)cc1F` [Compound 55, 3-(5-Benzyl-[1,2,4]oxadiazol-3-yl)-6-fluoro-1-(2-fluoro-4-trifluoromethyl-benzyl)-7-methylamino-1H-quinolin-4-one]: the IC50 is greater than 10 µM. In the case of `O=c1c(-c2noc(Cc3ccccc3)n2)cn(Cc2ccc(C(F)(F)F)cc2F)c2cc(-n3ccnc3)c(F)cc12` [Compound 56, 3-(5-benzyl-[1,2,4]oxadiazol-3-yl)-6-fluoro-1-(2-fluoro-4-trifluoromethyl-benzyl)-7-imidazol-1-yl-1H-quinolin-4-one], the IC50 was less than 2 µM. Take `Cc1cn(-c2cc3c(cc2F)c(=O)c(-c2noc(Cc4ccccc4)n2)cn3Cc2ccc(C(F)(F)F)cc2F)cn1` [Compound 57, 3-(5-benzyl-[1,2,4]oxadiazol-3-yl)-6-fluoro-1-(2-fluoro-4-trifluoromethyl-benzyl)-7-(4-methyl-imidazol-1-yl)-1H-quinolin-4-one]: the IC50 was less than 10 µM. As for `CN1CCN(c2cc3c(cc2F)c(=O)c(-c2noc(Cc4ccc(F)cc4)n2)cn3CCN2CCOCC2)CC1` [Compound 58, 6-fluoro-3-[5-(4-fluoro-benzyl)-[1,2,4]oxadiazol-3-yl]-7-(4-methyl-piperazin-1-yl)-1-(2-morpholin-4-yl-ethyl)-1H-quinolin-4-one], the IC50 is greater than 10 µM. Take `CN1CCN(c2cc3c(cc2F)c(=O)c(-c2noc(Cc4ccccc4)n2)cn3CCN2CCOCC2)CC1` [Compound 59, 3-(5-benzyl-[1,2,4]oxadiazol-3-yl)-6-fluoro-7-(4-methyl-piperazin-1-yl)-1-(2-morpholin-4-yl-ethyl)-1H-quinolin-4-one]: the IC50 was greater than 10 µM. The figure for `CN1CCN(c2cc3c(cc2F)c(=O)c(-c2noc(C(CC(N)=O)c4ccccc4)n2)cn3Cc2ccc(Cl)cc2)CC1` (centres unmarked) [Compound 60, 3-{3-[1-(4-chloro-benzyl)-6-fluoro-7-(4-methyl-piperazin-1-yl)-4-oxo-1,4-dihydro-quinolin-3-yl]-[1,2,4]oxadiazol-5-yl}-3-phenyl-propionamide] is greater than 10 µM; for `CN1CCN(c2cc3c(cc2F)c(=O)c(-c2noc(Cc4ccccn4)n2)cn3Cc2ccc(Cl)cc2)CC1` [Compound 61, 1-(4-chloro-benzyl)-6-fluoro-7-(4-methyl-piperazin-1-yl)-3-(5-pyridin-2-ylmethyl-[1,2,4]oxadiazol-3-yl)-1H-quinolin-4-one] it is greater than 10 µM. For the molecule `CN1CCN(c2cc3c(cc2F)c(=O)c(-c2noc(Cc4cccnc4)n2)cn3Cc2ccc(Cl)cc2)CC1` [Compound 62, 1-(4-chloro-benzyl)-6-fluoro-7-(4-methyl-piperazin-1-yl)-3-(5-pyridin-3-ylmethyl-[1,2,4]oxadiazol-3-yl)-1H-quinolin-4-one], the IC50 was greater than 10 µM. Consider `CN1CCN(c2cc3c(cc2F)c(=O)c(-c2noc(C(CCCC#N)c4ccccc4)n2)cn3Cc2ccc(Cl)cc2)CC1` (centres unmarked) [Compound 63, 5-{3-[1-(4-chloro-benzyl)-6-fluoro-7-(4-methyl-piperazin-1-yl)-4-oxo-1,4-dihydro-quinolin-3-yl]-[1,2,4]oxadiazol-5-yl}-5-phenyl-pentanenitrile], for which the IC50 is less than 2 µM. `CN1CCN(c2cc3c(cc2F)c(=O)c(-c2noc(Cc4ccc(F)cc4)n2)cn3Cc2ccc(Cl)nc2)CC1` [Compound 64, 1-(6-chloro-pyridin-3-ylmethyl)-6-fluoro-3-[5-(4-fluoro-benzyl)-[1,2,4]oxadiazol-3-yl]-7-(4-methyl-piperazin-1-yl)-1H-quinolin-4-one]: the IC50 was less than 10 µM. The figure for `CN1CCN(c2cc3c(cc2F)c(=O)c(-c2noc(Cc4ccccc4)n2)cn3Cc2ccc(Cl)nc2)CC1` [Compound 65, 3-(5-benzyl-[1,2,4]oxadiazol-3-yl)-1-(6-chloro-pyridin-3-ylmethyl)-6-fluoro-7-(4-methyl-piperazin-1-yl)-1H-quinolin-4-one] is less than 10 µM; for `COC(=O)CNc1cc2c(cc1F)c(=O)c(-c1noc(Cc3ccccc3)n1)cn2Cc1ccc(C(F)(F)F)cc1F` [Compound 66, methyl[3-(5-benzyl-[1,2,4]oxadiazol-3-yl)-6-fluoro-1-(2-fluoro-4-trifluoromethyl-benzyl)-4-oxo-1,4-dihydro-quinolin-7-ylamino]-acetate] it is greater than 10 µM.

Values taken from US20070287699A1, “ANTIVIRAL AGENTS” (ViroBay, Inc., priority 2006, published 2007).
